US6793914B2, “Anti-microbial compositions” (Unilever Home & Personal Care USA, division of Conopco, Inc., priority 2000, dated 2004)
Read-outs that look alike come from different tables or passages of the source.

Legend:
[1] = cited from earlier work; for Log10K (iron (III) binding constant): fully deprotonated chelator, independent of pH
[2] = system: S. epidermidis; test: Anti-Microbial Test 2: in vitro growth inhibition by chelators (optical density at 600 nm); type: cell-based, Staphylococcus epidermidis (axillary isolate); details: chelator 5×10^−5 mol.dm^−3 in semi-synthetic medium pH 6.7, 16 hours at 37° C., relative to control medium
Experimental: The chelators indicated in Table 4 were subjected to the following in vitro test for anti-microbial activity against Staphylococcus Epidermididis.
An axillary isolate of S. epidermidis was grown overnight in 100 ml of tryptone soy broth (TSB, ex Oxoid Ltd.). 10 ml of this culture was taken and subjected to centrifugation. The separated cells were re-suspended in 10 ml of phosphate-buffered saline and the centrifugation procedure repeated. The washed cells were re-suspended in 10 ml of phosphate-buffered saline to give the inoculum.
100 ml of semi-synthetic medium (SSM) [containing (NH4)2SO4 (0.066 g), MgSO4.7H2O (0.012 g), KCl (0.1 g), KH2PO4 (0.27 g), Na2HPO4 (1.43 g), Thiamin (0.1 mg), Biotin (0.05 mg), Peptone P (0.05 g), Glucose (2.0 mmole)] was sterilised by autoclaving at 121° C. for 20 minutes. After sterilisation, the pH was adjusted to 6.7 with HCl to give the control medium. The chelator-containing test media were prepared in a similar manner, the chelator being introduced at a concentration of 5×10^−5 mol.dm^−3, before the pH adjustment with HCl.
100 μl of the inoculum was introduced into each of the test media and the control medium. The cultures were incubated at 37° C. (with agitation at 200 rpm) for 16 hours. After this time, the optical density of the cultures were measured at 600 nm to determine the extent of bacterial growth. By comparing the optical density of the culture in the presence of chelating agent to that of the control, the percentage inhibition of growth was established for each of the chelators. (Optical density measurements were made on 1 in 4 dilutions of the cultures with 0.9% (w/v) saline, using 1 cm path length cuvettes, on a Pharmacia Biotech Ultrospec 200 Spectrophotometer.)

[3] = system: Staphylococcus epidermidis; details: cited from earlier work
[4] = literature values, 80% or greater reduction in growth over 16 to 24 hours at 37° C.

SMILES | iron (III) binding constant ([1]; Critical Stability Constants, Martell and Smith, 1974) | Log10K (iron (III) binding constant) [1] | Inhibition of growth (%) [2] [%] | MIC [3, 4] | MIC ([3]; stated by contrast, no source given)
O=C(O)CC(NCCNC(CC(=O)O)C(=O)O)C(=O)O (mixture of isomers) [EDDS, N,N-ethylenediaminedisuccinic acid, reference compound] | 10^22 | 22.0 | 18 | – | –
O=C(O)C(NCCNC(C(=O)O)c1ccccc1O)c1ccccc1O (centres unmarked) [EDDHA, N,N′-ethylenebis[2-(2-hydroxyphenyl)glycine]] | – | 35.5 | >70 | – | –
CC(C)=CCCC(C)=CCCC(C)=CCO [farnesol, 3,7,11-trimethyldodeca-2,6,10-trienol] | – | – | – | ca. 25 μg.ml^−1 | –
Oc1cc(Cl)ccc1Oc1ccc(Cl)cc1Cl [triclosan, 2′,4,4′-trichloro,2-hydroxy-diphenyl ether] | – | – | – | 0.01 to 10 µg/mL | –
O=C(O)CN(CC(=O)O)[C@@H]1CCCC[C@H]1N(CC(=O)O)CC(=O)O (relative stereo) [CDTA, trans-1,2-diaminocyclohexane-N, N,N′,N′-tetraacetic acid] | – | 28.05 | >70 | – | –
O=C(O)CN(CCOCCOCCN(CC(=O)O)CC(=O)O)CC(=O)O [EGTA, Ethyleneglycol-O,O′-bis-(2-aminoethyl)-N,N,N′,N′-tetraacetic acid, reference compound] | – | 20.5 | 21 | – | –
O=C(O)CN(CCN(CCN(CC(=O)O)CC(=O)O)CC(=O)O)CCN(CC(=O)O)CC(=O)O [TTHA, triethylenetetraaminehexaacetic acid] | – | 26.8 | >70 | – | –
O=C(O)CN(CCN(CC(=O)O)CC(=O)O)CC(=O)O [EDTA, ethylenediaminetetraacetic acid] | – | 25.1 | >70 | – | –
CCO [ethanol] | – | – | – | – | greater than 1 mg.ml^−1
O=C(O)CN(CC(=O)O)CC(=O)O [NTA, Nitrilotriacetic acid, reference compound] | – | 15.9 | 6 | – | –
O=C(O)CN(CCN(CC(=O)O)CC(=O)O)CCN(CC(=O)O)CC(=O)O [DTPA, diethylenetriaminepentaacetic acid] | – | 28.6 | >70 | – | –
